How the values were obtained:
[1] = system: patients with Cocaine Use Disorder (CUD); assay: Phase 2 trial: anxiety (STAI) and depressive symptoms (BDI-II); format: in vivo, human; settings: for anxiety symptoms by STAI: difference vs placebo not statistically significant (P=0.144 S-Anxiety, P=0.425 T-Anxiety); for depressive symptoms by BDI: difference vs placebo not statistically significant (P=0.696 BDI-II)
Experimental: (§1) This study was conducted in patients with CUD and consisted of about a 21-day screening period followed by a 7-day baseline period, a 98-day outpatient treatment period, and an end of study visit evaluation about 14 days after the last study drug administration ([…]. A). Study treatment was taken twice daily (separated by about 12-hour intervals) with food. For patients in the mavoglurant arm [mavoglurant (free form) provided as modified release formulation (e.g. in WO2014/199316)], an uptitration regimen was performed for 14 days (50 mg b.i.d. from Days 1 to 7 and 100 mg b.i.d from Days 8 to 14) and was followed by 200 mg b.i.d for 84 days.
Patient Reported Outcome included: • 1. The TLFB cocaine: is a cocaine assessment method that obtains estimates of daily cocaine intake and has been evaluated with clinical and nonclinical populations. Using a calendar, people provide retrospective estimates of their daily cocaine use over a specified time period that can vary up to 12 months from the interview date. Several memory aids can be used to enhance recall (e.g., calendar; key dates serve as anchors for reporting cocaine use). […] The method is recommended for use when relatively precise estimates of cocaine use are necessary, especially when a complete use pre-posttreatment). Clinically, the TLFB can be used to provide feedback about one's cocaine consumption in an effort to increase a client's motivation to change. • 2. The TLFB alcohol: is a drinking assessment method that obtains estimates of daily drinking and has been evaluated with clinical and nonclinical populations. Using a calendar, people provide retrospective estimates of their daily drinking over a specified time period that can vary up to 12 months from the interview date. Several memory aids can be used to enhance recall (e.g., calendar; key dates serve as anchors for reporting drinking; standard drink conversion). […] The method is recommended for use when relatively precise estimates of drinking are necessary, especially when a complete picture of drinking days (i.e., high- and low-risk days) is needed (evaluating drinking pre/post-treatment). Clinically, the TLFB can be used to provide feedback about one's drinking in an effort to increase a client's motivation to change. Overall, the Alcohol TLFB method provides a relatively accurate portrayal of drinking, and has both clinical and research utility. • 3. The BDI-II: is instrument endorsed by the National Institute for Health and Clinical Excellence for use in primary care in measuring baseline depression severity and responsiveness to treatment. • 4. The STAI: is an assessment tool for measuring the presence and severity of current symptoms of anxiety and a generalized propensity to be anxious. […]

[2] = system: patients with Cocaine Use Disorder (CUD); assay: Phase 2 trial: proportion of cocaine use days by TLFB self-report; format: in vivo, human; settings: for difference between groups in monthly proportion of cocaine use: MMRM
Experimental: This was a Phase 2 randomized, patient- and investigator-blinded, placebo-controlled, parallel-group study.
Patients diagnosed with Cocaine Use Disorder (CUD) according to Diagnostic and Statistical Manual of Mental Disorders, 5th Ed.
as §1
The primary endpoint was the proportion of cocaine use days during the treatment period, assessed by timeline followback [TLFB] cocaine self-report report. The secondary endpoints included a weekly urine analysis for a log-transformed quantitative measure of cocaine metabolite benzoylecgonine (BE), safety assessments (clinical parameters, suicidal ideation, adverse events [AE] and serious adverse events [SAE] at every visit), and pre- and post-dose levels of mavoglurant in the plasma. Exploratory endpoints included Clinical Global Impression (CGI; 2 components: CGI-S [rated illness severity], CGI-I [rated change from baseline]).
For the primary endpoint, a Bayesian analysis was conducted on the proportion of cocaine use days. It was assumed to be a continuous outcome with a normal distribution. The proportion of cocaine use days over the treatment period was analyzed using an analysis of covariance (ANCOVA) model with baseline use as a covariate. The profiles of consumption over time were compared between treatment groups through analyses of longitudinal data (weekly use and monthly use) using linear mixed model for repeated measures (MMRM). The model evaluated the posterior probability that the difference in proportions of cocaine use days between mavoglurant and placebo was <0 and that it was <−10%. A difference of 10% of days was deemed the minimal clinically relevant effect and a difference of 20% would be a very promising effect based on the literature in this indication. The study was deemed to show a positive signal of efficacy if the following two proof of concept (PoC) criteria were met:
The primary endpoint was the proportion of cocaine use days by TLFB during the treatment period (Day 1 to last day of treatment). For each subject, the proportion of cocaine use days was calculated by dividing the number of days of cocaine use during the treatment period with the treatment period, i.e., 98 days for completers and number of days between Day 1 and day of last dose in case of premature discontinuation of study treatment. Cocaine consumption was recorded daily (Yes/No) using the TLFB during the entire study.
Patient Reported Outcome included: • 1. The TLFB cocaine: is a cocaine assessment method that obtains estimates of daily cocaine intake and has been evaluated with clinical and nonclinical populations. Using a calendar, people provide retrospective estimates of their daily cocaine use over a specified time period that can vary up to 12 months from the interview date. Several memory aids can be used to enhance recall (e.g., calendar; key dates serve as anchors for reporting cocaine use). […] The method is recommended for use when relatively precise estimates of cocaine use are necessary, especially when a complete use pre-posttreatment). Clinically, the TLFB can be used to provide feedback about one's cocaine consumption in an effort to increase a client's motivation to change. • 2. […]

COC(=O)N1CC[C@@H]2[C@H]1CCC[C@@]2(O)C#Cc1cccc(C)c1 [mavoglurant, (-)-(3aR,4S,7aR)-4-Hydroxy-4-m-tolylethynyl-octahydro-indole-1-carboxylic acid methyl ester]
anxiety symptoms by STAI [1]: reduced nonsignificantly | anxiety symptoms by STAI ([1]; listed as Mavoglurant): reduced anxiety and depressive symptoms | depressive symptoms by BDI [1]: reduced nonsignificantly | depressive symptoms by BDI ([1]; listed as Mavoglurant): reduced anxiety and depressive symptoms | cocaine use by TLFB, difference mavoglurant-placebo (result in words) ([2]; 98-day administration, P=0.021, listed as Mavoglurant): reduced cocaine consumption significantly | P(θmavoglurant−θplacebo<0|data), PoC criterion 1 ([2]; Bayesian analysis over the treatment period (14 weeks), criterion met (P>0.90)): 0.999 | P(θmavoglurant−θplacebo<−10%|data), PoC criterion 2 ([2]; Bayesian analysis over the treatment period (14 weeks), criterion not met (P<0.50)): 0.366 | difference between groups in monthly proportion of cocaine use ([2]; Month 2, P=0.042): 8% | difference between groups in monthly proportion of cocaine use ([2]; Month 3, P=0.003): 14% | posterior probability in reducing cocaine use, treatments difference <0 ([2]; cocaine TLFB, 98-day administration (50/100 mg b.i.d. uptitration, then 200 mg b.i.d. 84 days, modified release), mavoglurant vs placebo, Bayesian analysis): 99.0% | posterior probability in reducing cocaine use, treatments difference <−10% ([2]; cocaine TLFB, 98-day administration, mavoglurant vs placebo, Bayesian analysis): 36.6% | difference between groups in proportion of cocaine use days ([2]; over the treatment period (14 weeks), mavoglurant vs placebo): 8.7% | observed difference between mavoglurant and placebo in proportion of cocaine use days ([2]; over the treatment period, FIG. 2B): −0.087

— US20240050408A1, “USE OF MGLUR5 ANTAGONISTS FOR TREATING AMPHETAMINE ADDICTION” (NOVARTIS AG, priority 2020, published 2024)
